SMILES strings stand for the structures. Values after ≈ are worked out from the molar mass of the structure shown. Some results are limits rather than exact numbers.

For orientation: NOAEL means the highest tested level that showed no adverse finding.

One data set concerns Anas platyrhynchos. The conditions noted are these: reproductive.
Another data set has as its system Apis mellifera. As to conditions: acute, mortality.
The test system of a further data set is Landoltia sp. The conditions noted are these: chronic/long-term; duration: 14 days.
In another data set the test system is Canidae. The conditions noted are these: oral, Dog Other, organ weight.
A further data set concerns Tagia sp. The conditions noted are these: acute; duration: 14 days; mortality.
A further data set concerns Typhlodromus pyri. Nature of the data set: LR50; higher = less toxic. The conditions noted are these: not reported; mortality.

For the compound `CCC(C)(NC(=O)c1cc(Cl)c(C)c(Cl)c1)C(=O)CCl` (configuration not stated) [Zoxamide], the LD50 in the data set on Colinus virginianus (acute, oral, mortality) was greater than 2000 mg/kg-day; in the data set on Rattus norvegicus (acute, oral, mortality), greater than 5000 mg/kg-day; in the data set on Apis mellifera (dermal), greater than 100 µg/piece; in the data set with Apis mellifera (oral, unspecified), greater than 33 µg/piece. The NOEC in the data set with Colinus virginianus (reproduction developmental) is 171 mg/kg-day; in the data set with Anas platyrhynchos it was 123 mg/kg-day; with Neomysis kadiakensis (chronic/long-term, duration: 27 days) it was 0.0072 mg/L; in the data set with Oncorhynchus mykiss (chronic/long-term, duration: 95 days), 0.00348 mg/L; in the data set with Landoltia sp. it was 0.009 mg/L; in the data set on Tagia sp., 66.7 mg/kg. Also, the NOAEL with Rattus norvegicus (reproduction developmental, body weight) was 360 mg/kg-day; in the data set with Canidae (chronic, duration: 1 years), 50 mg/kg-day; in the data set with Canidae (subchronic, duration: 90 days), 50 mg/kg-day. For the same compound, the LC50 in the data set with Neomysis kadiakensis (acute, duration: 96 hours, mortality) was 0.076 µg/mL (≈ 0.226 µM); in the data set with Oncorhynchus mykiss (acute, duration: 96 hours, oral, feed, mortality) it was 0.16 µg/mL (≈ 0.475 µM); in the data set with Tagia sp., greater than 1070 mg/kg. For the same compound, the LR50 with Typhlodromus pyri was greater than 300 g/ha.

For the origin of these results see EPA's ToxValDB 9.5 (doi:10.2903/j.efsa.2017.4980).
